Experimental data taken from US11952375B2, “Crystalline forms of Mnk inhibitors” (eFFECTOR Therapeutics Inc., priority 2018, dated 2024).

Columns and labels:
[1] = Solubility noted during palladium scavenging work; format: physicochemical; conditions: qualitative; precluded use of common solid-supported palladium scavenging agents
[2] = Kinetic slurry study of the free base in various solvent systems; XRPD and equilibrium solubilities give relative polymorph stability; format: physicochemical; conditions: slurries in various solvent systems, temperatures and water amounts; solids isolated at 2, 4, 6, 24, 72 hours
Method: For example, the free base of (5) was slurried at ambient temperature in various solvent systems, at various temperatures, with varying amounts of water. In each solvent condition, solids were isolated for XRPD analysis at 2, 4, 6, 24, and 72 hours. Equilibrium solubilities in these solvents were then calculated and used to identify ethanol for the final slurry step. The difference in free energy between solid phases with the same composition (i.e., polymorphs, hydrates, or solvates) is directly proportional to their relative solubilities.

Row | solubility [1] | thermodynamic stability of polymorph [2] | SMILES
1 | Low |  | Cc1cc(Nc2cc(N)ncn2)c(=O)n2c1C(=O)NC21CCCCC1 [Compound 5, 6′-((6-aminopyrimidin-4-yl)amino)-8′-methyl-2′H-spiro[cyclohexane-1,3′-imidazo[1,5-a]pyridine]-1′,5′-dione]
2 |  | most thermodynamically stable polymorph | Cc1cc(Nc2cc(N)ncn2)c(=O)n2c1C(=O)NC21CCCCC1 [Form A, 6′-((6-aminopyrimidin-4-yl)amino)-8′-methyl-2′H-spiro[cyclohexane-1,3′-imidazo[1,5-a]pyridine]-1′,5′-dione]
